Data set [1] is described as follows: Phase diagram of GEO/water mixtures (polarising microscope, small angle x-ray diffraction). The format is physicochemical. To be noted: mixtures with water, FIG. 1. How it is done:
Mixtures of glyceryl-1-monooleate ether (GEO) with water were prepared, shaken and allowed to equilibrate at a known temperature. The phase(s) of the resulting mixture were examined under the polarising microscope and by small angle x-ray diffraction.
At higher water content, both the L2 and the HII phases were stable in the presence of excess water.

For data set [2] the following is noted: stated as known; cited from earlier work.

Bounds are passed on as bounds.

The text below walks through data of US20070231374A1, “Composition Comprising Ether Lipid” (priority 2003, published 2007).

`CCCCCCCC/C=C\CCCCCCCCOCC(O)CO` (stereo not drawn) [GEO, Glyceryl-1-monooleate ether]: the “water concentration at which reversed hexagonal (HII) phase forms” value in data set [1] was above 15%. In data set [2], the “stable phase in excess water” value is reported as “reversed hexagonal”.

On to `CCCCCCCC/C=C\CCCCCCCC(=O)OCC(O)CO` (stereo not drawn) [GMO, glyceryl monooleate], for which the “stable phase in excess water” value in data set [2] was “reversed cubic”.
